Results as given in patent US20240368122A1, “JAK2 INHIBITORS AND METHODS OF USE THEREOF” (RELAY THERAPEUTICS, INC., priority 2021, published 2024).
pIC50, pKd: −log10 of the molar value. Like-named read-outs stand apart in the source and are kept apart here.

Assays:
[1] = system: TF1 JAK2 V617F STAT3 reporter; assay: Cellular TF1 STAT3 assay (luciferase reporter), JAK2 V617F; type: cell-based; details: read-out: Cell PD-TF1 JAK2 V617F STAT3 (IC50)
Method in brief: (§1)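 Compounds were dispensed as 1000× DMSO stocks (10 mM top, 1:3 steps), then V617F JAK2 TF1 cells carrying a STAT3 or STAT5 luciferase reporter were added. After 18-20 h at 37 °C, ONE-glo reagent was added and luminescence measured.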

[2] = system: TF1 JAK2 V617F STAT5 reporter; assay: Cellular TF1 STAT5 assay (luciferase reporter), JAK2 V617F; type: cell-based; details: read-out: Cell PD TF1 V617F STAT5 (IC50)
Method in brief: as §1

[3] = target: T1, JAK2 JH2 WT (V536-D812) [W659A, W777A, F794H solubilizing mutations] (Homo sapiens, UniProt O60674, F794H/W659A/W777A); assay: Surface Plasmon Resonance (SPR) binding assay, JAK2 JH2 domain
T1 construct: **JAK2 JH2 WT (V536-D812) [W659A, W777A, F794H solubilizing mutations]; C-thrombin-avi-His6; thrombin cleavage site (C); His6 (C); purchased Biortus
Method in brief: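 Kinetics came from 1:1 fits of single-cycle runs at 20 °C: four 3-fold dilutions from 5 uM for JH1 or 500 nM for JH2, 60 s association, and 300 s or 1200 s dissociation respectively. Protein was freshly captured per compound in the presence of 10 uM stabilizer compound, with running buffer of pH 7.5 HEPES/NaCl/glycerol/DTT plus 2% DMSO.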

[4] = Homo sapiens, TF-1, TF1 cells, JAK2 V617F

T1 sequence (O60674 536-812 W659A/W777A/F794H): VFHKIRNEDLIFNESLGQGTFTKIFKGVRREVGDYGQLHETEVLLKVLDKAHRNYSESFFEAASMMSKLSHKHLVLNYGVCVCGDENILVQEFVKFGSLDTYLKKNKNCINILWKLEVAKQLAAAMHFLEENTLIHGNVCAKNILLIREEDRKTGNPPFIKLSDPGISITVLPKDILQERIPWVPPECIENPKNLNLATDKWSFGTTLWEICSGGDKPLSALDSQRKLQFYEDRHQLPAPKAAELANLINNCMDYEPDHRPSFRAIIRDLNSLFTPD

pIC50 ([1]; TF1 JAK2 V617F) | pIC50 ([2]; TF1 JAK2 V617F) | pKd ([3]; SPR, JAK2 JH2 domain) | pIC50 [1, 4] | pIC50 [2, 4] | pKd [3] | Compound
5.30 to 6.30 | 5.30 to 6.30 | 8.00 to 11.00 |  |  |  | CNC(=O)c1nnc(NC(=O)C2CC2)cc1Nc1cccc(-c2ccc(C(=O)N(C)[C@H](C)c3cc(C#N)ccn3)nc2)c1OC (single isomer, unassigned) [Compound 181]
5.30 to 6.30 | 5.30 to 6.30 | 8.00 to 11.00 |  |  |  | CNC(=O)c1nnc(NC(=O)C2CC2)cc1Nc1cccc(-c2cnn(C3CN(Cc4ncn(C)n4)C3)c2)c1OC [Compound 104]
6.30 to 7.30 | 6.30 to 7.30 | 8.00 to 11.00 |  |  |  | CNC(=O)c1nnc(NC(=O)C2CC2)cc1Nc1cccc(-c2cnn(C3CN(Cc4csnn4)C3)c2)c1OC [Compound 173]
 |  |  | 5.30 to 6.30 | 5.30 to 6.30 | 8.00 to 11.00 | CNC(=O)c1nnc(NC(=O)C2CC2)cc1Nc1ccc(C)c(-c2ccc(C(=O)N(C)Cc3cn(C)nc3C)cn2)c1OC [Compound 278]
6.30 to 7.30 | 5.30 to 6.30 | 8.00 to 11.00 |  |  |  | CNC(=O)c1nnc(NC(=O)C2CC2)cc1Nc1cccc(-c2cnn(C3CN(Cc4nccc(C)n4)C3)c2)c1OC [Compound 77]
 |  |  | 6.30 to 7.30 | 6.30 to 7.30 | 8.00 to 11.00 | CNC(=O)c1nnc(NC(=O)C2CC2)cc1Nc1cccc(-c2ccc(C(=O)N(C)Cc3cn(C)nc3C(C)C)nc2)c1OC [Compound 198]
5.30 to 6.30 | 5.30 to 6.30 | 8.00 to 11.00 |  |  |  | CNC(=O)c1nnc(NC(=O)C2CC2)cc1Nc1cccc(-c2cn(C3CN(Cc4cccc(C#N)n4)C3)nc2C)c1OC [Compound 185]
 |  |  | 4.00 to 5.30 | 5.30 to 6.30 | 7.30 to 8.00 | CNC(=O)c1nnc(NC(=O)C2CC2)cc1Nc1cccc(-c2ccc(C3CN(Cc4cnccc4C(F)F)C3)nc2)c1OC [Compound 291]
 |  |  | 4.00 to 5.30 | 4.00 to 5.30 | 7.30 to 8.00 | CNC(=O)c1nnc(NC(=O)C2CC2)cc1Nc1cccc(-c2cncc(C3CN(Cc4ccccn4)C3)c2)c1OC [Compound 280]
6.30 to 7.30 | 5.30 to 6.30 | 8.00 to 11.00 |  |  |  | CNC(=O)c1nnc(NC(=O)C2CC2)cc1Nc1cccc(-c2ccc(C(=O)N(C)Cc3ccc(C)cn3)nc2)c1OC [Compound 134]
 |  |  | 5.30 to 6.30 | 4.00 to 5.30 | 8.00 to 11.00 | COc1c(Nc2cc(NC(=O)C3CC3)nn3cc(C)nc23)ccc(C)c1-c1ccc(C(=O)N(C)Cc2cn(C)nc2C)nc1 [Compound 262]
5.30 to 6.30 | 4.00 to 5.30 | 8.00 to 11.00 |  |  |  | CNC(=O)c1nnc(NC(=O)C2CC2)cc1Nc1cccc(-c2ccc(C(=O)N(C)Cc3ccon3)nc2)c1OC [Compound 99]
6.30 to 7.30 | 6.30 to 7.30 | 8.00 to 11.00 |  |  |  | [2H]C([2H])([2H])NC(=O)c1nnc(NC(=O)C2CC2)cc1Nc1cccc(-c2ccc(C(=O)N(Cc3cc(C#N)ccn3)C([2H])([2H])[2H])nc2)c1OC [Compound 74]
 |  |  | 4.00 to 5.30 | 5.30 to 6.30 | 6.30 to 7.30 | CNC(=O)c1nnc(NC(=O)C2CC2)cc1Nc1cccc(-c2ccc(C3CN(Cc4ccccn4)C3)c(OC)c2)c1OC [Compound 359]
 |  |  | 6.30 to 7.30 | 7.30 to 8.00 | 8.00 to 11.00 | CNC(=O)c1nnc(NC(=O)C2CC2)cc1Nc1cccc(-c2cnn(C3CN(Cc4cccc(C(=O)N5CCC5)n4)C3)c2)c1OC [Compound 355]
 |  |  | 4.00 to 5.30 | 4.00 to 5.30 | 6.30 to 7.30 | CNC(=O)c1nnc(NC(=O)C2CC2)cc1Nc1cccc(C(=O)N[C@H](C)C2CN(Cc3ccccn3)C2)c1OC (single isomer, unassigned) [Compound 246]
 |  |  | 6.30 to 7.30 | 6.30 to 7.30 | 8.00 to 11.00 | CNC(=O)c1nnc(NC(=O)C2CC2)cc1Nc1cccc(-c2cnn(C3CN(Cc4cccn5nccc45)C3)c2)c1OC [Compound 303]
5.30 to 6.30 | 4.00 to 5.30 | 7.30 to 8.00 |  |  |  | CNC(=O)c1nnc(NC(=O)C2CC2)cc1Nc1cccc(-c2ccc(C(=O)N(C)Cc3cn4c(n3)CCCC4)nc2)c1OC [Compound 84]
 |  |  | 6.30 to 7.30 | 6.30 to 7.30 | 8.00 to 11.00 | CNC(=O)c1nnc(NC(=O)C2CC2)cc1Nc1cccc(-c2cnn(C3CN(Cc4cccc(C(C)=O)n4)C3)c2)c1OC [Compound 307]
 |  |  | 5.30 to 6.30 | 4.00 to 5.30 | 8.00 to 11.00 | CNC(=O)c1nnc(NC(=O)C2CC2)cc1Nc1cccc(-c2cnn(C3CN(C(C#N)c4ccccn4)C3)c2)c1OC (racemic) [Compound 315]
 |  |  | 6.30 to 7.30 | 6.30 to 7.30 | 8.00 to 11.00 | CNC(=O)c1nnc(NC(=O)C2CC2)cc1Nc1cccc(-c2cnn(C3CN(Cc4cccc(C5(C#N)CCC5)n4)C3)c2)c1OC [Compound 290]

pIC50 ([1]; TF1 JAK2 V617F) | pIC50 ([2]; TF1 JAK2 V617F) | pKd ([3]; SPR, JAK2 JH2 domain) | pIC50 [1, 4] | pIC50 [2, 4] | pKd [3] | Compound
 |  |  | 5.30 to 6.30 | 6.30 to 7.30 | 8.00 to 11.00 | CNC(=O)c1nnc(NC(=O)C2CC2)cc1Nc1cccc(-c2cnn(C3CN(Cc4cccc(C(=O)C(C)C)n4)C3)c2)c1OC [Compound 309]
 |  |  | 7.30 to 8.00 | 7.30 to 8.00 | 8.00 to 11.00 | CNC(=O)c1nnc(NC(=O)C2CC2)cc1Nc1cccc(-c2cnn(C3CN(Cc4cccc(C(=O)N(C)C)n4)C3)c2)c1OC [Compound 275]
 |  |  | 6.30 to 7.30 | 6.30 to 7.30 | 8.00 to 11.00 | CNC(=O)c1nnc(NC(=O)C2CC2)cc1Nc1cccc(-c2cnn(C3CN(Cc4cccn5ccnc45)C3)c2)c1OC [Compound 373]
5.30 to 6.30 | 5.30 to 6.30 | 8.00 to 11.00 |  |  |  | CNC(=O)c1nnc(NC(=O)C2CC2)cc1Nc1cccc(-c2cnn(C3CN(Cc4ccccc4F)C3)c2)c1OC [Compound 90]
 |  |  | 5.30 to 6.30 | 5.30 to 6.30 | 8.00 to 11.00 | CNC(=O)c1nnc(NC(=O)C2CC2)cc1Nc1cccc(-c2cnn(C3CN(Cc4ncccc4C(F)(F)F)C3)c2)c1OC [Compound 302]
 |  |  | 4.00 to 5.30 | 5.30 to 6.30 | 8.00 to 11.00 | CNC(=O)c1nnc(NC(=O)C2CC2)cc1Nc1cccc(-c2ccc(C(=O)N(C)Cc3cnc(C)s3)nc2)c1OC [Compound 211]
 |  |  | 4.00 to 5.30 | 5.30 to 6.30 | 7.30 to 8.00 | CNC(=O)c1nnc(NC(=O)C2CC2)cc1Nc1cccc(-c2ccc(C3CN(Cc4cccc(C(F)(F)F)n4)C3)nc2)c1OC [Compound 391]
 |  |  | 5.30 to 6.30 | 5.30 to 6.30 | 8.00 to 11.00 | CNC(=O)c1nnc(NC(=O)C2CC2)cc1Nc1cccc(-c2ccc(C(=O)N(C)Cc3cn(C4CC4)nc3C)nc2)c1OC [Compound 285]
6.30 to 7.30 | 6.30 to 7.30 | 8.00 to 11.00 |  |  |  | CNC(=O)c1nnc(NC(=O)C2CC2)cc1Nc1cccc(-c2cnc(C(=O)N(C)Cc3nn(C)cc3Br)nc2)c1OC [Compound 56]
 |  |  | 5.30 to 6.30 | 5.30 to 6.30 | 8.00 to 11.00 | CNC(=O)c1nnc(NC(=O)C2CC2)cc1Nc1cccc(-c2ccc(C(=O)N(C)Cc3ncc(COC4CC4)s3)nc2)c1OC [Compound 362]
5.30 to 6.30 | 6.30 to 7.30 | 8.00 to 11.00 |  |  |  | CNC(=O)c1nnc(NC(=O)C2CC2)cc1Nc1cccc(-c2cnc(C(=O)N(C)Cc3cn(C)nc3C(F)(F)F)nc2)c1OC [Compound 64]
6.30 to 7.30 | 6.30 to 7.30 | 8.00 to 11.00 |  |  |  | CNC(=O)c1nnc(NC(=O)C2CC2)cc1Nc1cccc(-c2ccc(C(=O)N(C)Cc3cccc(C)n3)nc2)c1OC [Compound 167]
 |  |  | 6.30 to 7.30 | 6.30 to 7.30 | 8.00 to 11.00 | CNC(=O)c1nnc(NC(=O)C2CC2)cc1Nc1cccc(-c2cnn(C3CN(Cc4cccc(C5COC5)n4)C3)c2)c1OC [Compound 343]
 |  |  | 6.30 to 7.30 | 6.30 to 7.30 | 8.00 to 11.00 | CNC(=O)c1nnc(NC(=O)C2CC2)cc1Nc1cccc(-c2cnn(C3CN(Cc4cc(Cl)ccn4)C3)c2)c1OC [Compound 250]
 |  |  | 6.30 to 7.30 | 6.30 to 7.30 | 8.00 to 11.00 | CNC(=O)c1nnc(NC(=O)C2CC2)cc1Nc1cccc(-c2ccc(C(=O)N(C)Cc3cn(C)nc3C(F)F)nc2)c1OC [Compound 222]
5.30 to 6.30 | 5.30 to 6.30 | 8.00 to 11.00 |  |  |  | CNC(=O)c1nnc(NC(=O)C2CC2)cc1Nc1cccc(-c2cnn(C3CN(Cc4ncccn4)C3)c2)c1OC [Compound 70]
5.30 to 6.30 | 4.00 to 5.30 | 7.30 to 8.00 |  |  |  | CNC(=O)c1nnc(NC(=O)C2CC2)cc1Nc1cccc(-c2ccc(C(=O)N(C)Cc3cncs3)nc2)c1OC [Compound 60]
 |  |  | 4.00 to 5.30 | 5.30 to 6.30 | 8.00 to 11.00 | CNC(=O)c1nnc(NC(=O)C2CC2)cc1Nc1cccc(-c2ccc(C(=O)N(C)Cc3scnc3C)nc2)c1OC [Compound 210]
 |  |  | 6.30 to 7.30 | 6.30 to 7.30 | 8.00 to 11.00 | CNC(=O)c1nnc(NC(=O)C2CC2)cc1Nc1cccc(-c2cnn(C3CN(Cc4cccn(C(F)F)c4=O)C3)c2)c1OC [Compound 251]
 |  |  | 5.30 to 6.30 | 5.30 to 6.30 | 8.00 to 11.00 | CNC(=O)c1nnc(NC(=O)C2CC2)cc1Nc1ccc(C)c(-c2cn(C3CN(Cc4cccc(C#N)n4)C3)nn2)c1OC [Compound 268]
 |  |  | 5.30 to 6.30 | 5.30 to 6.30 | 8.00 to 11.00 | CNC(=O)c1nnc(NC(=O)C2CC2)cc1Nc1cccc(-c2cn(C3CN(Cc4cccc(C#N)n4)[C@@H]3C)nn2)c1OC (stereo in doubt) [Compound 237]
